# PMC9913752, “Proof-of-Concept Study of an Alpha-Fetoprotein-Derived Peptide for the Management of Canine Mammary Cancer” (Animals : an Open Access Journal from MDPI, 2023)
# Where two headings read alike, the source gives them in different places. Where a SMILES comes first, the peptide text is derived from it. [ ]: non-standard residue; d: D form. Hyp = O=C(O)[C@@H]1C[C@@H](O)CN1
# Experiments:
# Pharmacokinetics in mice = format: in vivo; conditions: mouse; for Cmax / AUC: plasma LC/MS/MS; for half-life: in vivo
# Experimental: (§1) AFPep (4 mg/kg) was administered by parenteral (i.v., s.c.) as well as oral routes to normal adult mice, dogs, and monkeys. Blood samples were obtained from anesthetized mice via the retroorbital plexus. Blood samples from dogs and monkeys were obtained through an indwelling catheter in the cephalic vein by the veterinarian staff at Albany Medical College. Dogs were awake and alert during sampling; monkeys were under anesthesia, as previously described. For the oral route, gavage was used in mice and monkeys; enteric capsules ([…]) containing AFPep were used and were readily swallowed by dogs. AFPep blood levels were measured using lliquid chromatography and mass spectrometry, as previously described.
# [1] = tested on: Estrogen-induced mammary tumors; conditions: cited from earlier work
# From the text: Table 1 The therapeutic and preventive efficacy of AFPep * in rodent models of mammary cancer. | column: Estrogen-Induced Mammary Tumors in ACI Rats ^3 || As models for preventive interventions, two widely used mammary cancer induction models in rats were studied to assess the cancer prevention capabilities of AFPep.
# [2] = tested on: ER-positive primary canine mammary cancer cells; conditions: cited from earlier work
# Experimental: It is important to note that during the development of AFPep, head-to-tail cyclization was carried out to increase stability as well as oral bioavailability. Other investigators have shown that the cyclization of peptides increases bioavailability.
# in vivo = test: in vivo; set-up: species or system Macaca mulatta; conditions: monkey
# Experimental: as §1
# [3] = 8-day repeat-dose study, AFPep blood levels in tumor-bearing dogs; format: in vivo, dog; conditions: for level at 0.5 h: female, dog, blood, sc, 10 mg
# From the text: Previous studies utilizing repeat dosing in mice and rats established safe starting doses for studies using dogs. Female dogs with one or more spontaneously occurring mammary gland tumors greater than approximately 2 cm in maximum diameter, presenting to the Cancer Institute at the Schwarzman Animal Medical Center in New York City, were screened for inclusion in the study. […] All dogs underwent complete clinical staging, consisting of a complete blood count with cell differential, clinical chemistry, and urinalysis. Dogs were administered AFPep 10 mg s.c. once daily for 8 consecutive days. Tumors were biopsied prior to the administration of AFPep and were surgically removed on day 8 after the last injection of AFPep. Blood levels of AFPep were measured before and 30 minutes following its administration on the first day and eighth day of treatment with AFPep. Histopathology was obtained on all mammary gland tumors. Tolerability was assessed using the Veterinary Cooperative Oncology Group Common Terminology Criteria for Adverse Events. Blood chemistry and hematology analyses were performed at IDEXX Laboratories Inc. (Westbrook, ME, USA), using the Sysmex XT and Beckman AU 5800 systems. This study was approved by the Schwarzman Animal Medical Center IACUC and informed consent was obtained in writing from all owners.
# [4] = tested on: MCF-7 human breast cancer xenografts; conditions: cited from earlier work
# Experimental: Table 1 The therapeutic and preventive efficacy of AFPep * in rodent models of mammary cancer. | column: MCF-7 Human Breast Cancer Growth in SCID Mice ^1 || The efficacy of AFPep in various models of mammary cancer has been shown in multiple reports. […] A 4 mg/kg dose was assessed parenterally, and the dosage was escalated to 100 mg/kg, administered orally.
# [5] = tested on: MNU-induced mammary tumors; conditions: cited from earlier work
# From the text: Table 1 The therapeutic and preventive efficacy of AFPep * in rodent models of mammary cancer. | column: MNU-Induced Mammary Tumors in Sprague Dawley Rats ^2 || As models for preventive interventions, two widely used mammary cancer induction models in rats were studied to assess the cancer prevention capabilities of AFPep.
# Pharmacokinetics in dogs = format: in vivo; conditions: dog; for AUC / Cmax: plasma LC/MS/MS
# Experimental: as §1
# [6] = p.o. enteric capsules (DRcaps), 4 mg/kg per footnote (100 mg/kg orally)
smiles,measurement,setting,value
CC(C)[C@@H]1NC(=O)[C@@H]2C[C@@H](O)CN2C(=O)[C@H]([C@@H](C)O)NC(=O)[C@H](CCCCN)NC(=O)[C@H](CCC(=O)O)NC(=O)[C@H](CC(N)=O)NC(=O)CNC(=O)[C@@H]2C[C@@H](O)CN2C(=O)[C@H](CC(N)=O)NC1=O [AFPep] (cyclo(EKT[Hyp]VN[Hyp]GN)),Cmax,"Pharmacokinetics in mice; iv, 4 mg/kg (100 µg/mouse), non-linear regression, first-order PK model",12000 ng/mL
same,AUC,"Pharmacokinetics in mice; iv, 4 mg/kg",4200 ng·h/mL
same,half-life,"Pharmacokinetics in mice; iv, 4 mg/kg",11 min
same,half-life,Pharmacokinetics in mice; po,6.3 min
same,half-life,"Pharmacokinetics in mice; sc, 4 mg/kg",11 min
same,AUC,"Pharmacokinetics in mice; po, p.o. gavage, 4 mg/kg per footnote (100 mg/kg orally)",80 ng·h/mL
same,Cmax,"Pharmacokinetics in mice; po, p.o. gavage, 4 mg/kg per footnote (escalated to 100 mg/kg orally)",140 ng/mL
same,AUC,"Pharmacokinetics in mice; sc, 4 mg/kg",3450 ng·h/mL
same,Cmax,"Pharmacokinetics in mice; sc, 4 mg/kg",6400 ng/mL
same,"Estrogen-Induced Mammary Tumors in ACI Rats, % of Rats with Tumors","[1]; estradiol Silastic implant, AFPep s.c. once daily, p < 0.05",48 * %
same,latency period of cancer appearance,[1]; hormone-induced model,prolonged
same,activity against ER-positive primary canine mammary cancer cells growing in culture,[2],effective
same,AUC,"in vivo; iv, 4 mg/kg",26200 ng·h/mL
same,Cmax,"in vivo; iv, 4 mg/kg",13000 ng/mL
same,half-life,"in vivo; iv, 4 mg/kg",107 min
same,half-life,in vivo; po,810 min
same,AUC,"in vivo; sc, 4 mg/kg",23400 ng·h/mL
same,Cmax,"in vivo; sc, 4 mg/kg",8200 ng/mL
same,half-life,"in vivo; sc, 4 mg/kg",27 min
same,"AFPep blood level, Day 8 Pre-Treatment","[3]; Chihuahua, 7.53 kg, 10 mg s.c. once daily for 8 days, single animal",0 ng/mL
same,"AFPep blood level, Day 8 Pre-Treatment","[3]; Pitbull, 30.2 kg, 10 mg s.c. once daily for 8 days, single animal",0 ng/mL
same,"AFPep blood level, Day 8 Pre-Treatment","[3]; Pomeranian, 7.98 kg, 10 mg s.c. once daily for 8 days, single animal",0 ng/mL
same,"AFPep blood level, Day 8 Pre-Treatment","[3]; Shih tzu, 11.02 kg, 10 mg s.c. once daily for 8 days, single animal",0 ng/mL
same,"AFPep blood level, Day 8 Pre-Treatment","[3]; Yorkshire terrier, 5.86 kg, 10 mg s.c. once daily for 8 days, single animal",0 ng/mL
same,level at 0.5 h,"[3]; Pomeranian, Pomeranian, 7.98 kg, 30 min after 10 mg s.c., single animal, read-out: AFPep blood level, Day 1 Post-Treatment",2400 ng/mL
same,level at 0.5 h,"[3]; Pomeranian, Pomeranian, 7.98 kg, 30 min after dose, 10 mg s.c. once daily for 8 days, single animal, read-out: AFPep blood level, Day 8 Post-Treatment",2100 ng/mL
same,level at 0.5 h,"[3]; Poodle mix, Poodle mix, 5.80 kg, 30 min after 10 mg s.c., single animal, read-out: AFPep blood level, Day 1 Post-Treatment",4400 ng/mL
same,level at 0.5 h,"[3]; Poodle mix, Poodle mix, 5.80 kg, 30 min after dose, 10 mg s.c. once daily for 8 days, single animal, read-out: AFPep blood level, Day 8 Post-Treatment",5000 ng/mL
same,level at 0.5 h,"[3]; Yorkshire terrier, Yorkshire terrier, 5.86 kg, 30 min after 10 mg s.c., single animal, read-out: AFPep blood level, Day 1 Post-Treatment",2200 ng/mL
same,level at 0.5 h,"[3]; Yorkshire terrier, Yorkshire terrier, 5.86 kg, 30 min after dose, 10 mg s.c. once daily for 8 days, single animal, read-out: AFPep blood level, Day 8 Post-Treatment",1900 ng/mL
same,level at 0.5 h,"[3]; diverse breeds, Mean ± S.D. of 6 tumor-bearing dogs, 30 min after 10 mg s.c., first day, read-out: AFPep blood level, Day 1 Post-Treatment",3600 ± 1200 ng/mL
same,level at 0.5 h,"[3]; diverse breeds, Mean ± S.D. of 6 tumor-bearing dogs, 30 min after the day-8 dose, 10 mg s.c. once daily for 8 days, read-out: AFPep blood level, Day 8 Post-Treatment",2500 ± 600 ng/mL
same,level at 0.5 h,"[3]; summary of Table 6, 30 minutes post-AFPep, 10 mg s.c. once a day for 8 days, 6 tumor-bearing dogs, read-out: AFPep blood levels",2000 to 3000 ng/mL
same,MCF-7 Human Breast Cancer Growth in SCID Mice (tumor volume),"[4]; AFPep 100 μg/mouse (4 mg/kg) oral gavage once daily for 14 days, established xenografts, p < 0.05 vs saline",30 mm³
same,blood levels of AFPep needed for anti-breast cancer activity,[4],10^−7 M
same,minimum blood level (Cmax) needed for stoppage of xenograft growth,"[4]; dose-response studies, human breast cancer xenografts in immune-deficient mice",0.1 µg/mL
same,minimum AUC needed for stoppage of xenograft growth,"[4]; dose-response studies, xenografts in mice",6.5 µg·min/mL
same,tumor outgrowth when dosing begun immediately following tumor implantation,"[4]; once daily, 30-day observation period",completely prevented
same,growth of established MCF-7 xenografts,"[4]; once-daily oral 4 mg/kg over a 14-day period, immunodeficient mice",almost completely stopped in their growth
same,"MNU-Induced Mammary Tumors in Sprague Dawley Rats, % of Rats with Tumors","[5]; MNU 50 mg/kg, AFPep 4 mg/kg s.c. once daily for 23 days from 10 days after MNU, p < 0.05",40 * %
same,latency period of cancer appearance,[5]; chemically induced model,prolonged
same,T1/2,Pharmacokinetics in dogs; in vivo,39 min
same,half-life,"Pharmacokinetics in dogs; in vivo, iv, 4 mg/kg",18 min
same,half-life,"Pharmacokinetics in dogs; in vivo, sc, 4 mg/kg",65 min
same,AUC,Pharmacokinetics in dogs; [6],14 min(µg/mL)
same,Cmax,Pharmacokinetics in dogs; [6],100 ng/mL
same,Cmax,"Pharmacokinetics in dogs; iv, i.v., 4 mg/kg, non-linear regression, first-order PK model, read-out: Cmax",35000 ng/mL
same,AUC,"Pharmacokinetics in dogs; iv, i.v., 4 mg/kg, read-out: AUC (converted)",15000 ng·h/mL
same,AUC,"Pharmacokinetics in dogs; sc, s.c., 4 mg/kg, read-out: AUC (converted)",13500 ng·h/mL
same,Cmax,"Pharmacokinetics in dogs; sc, s.c., 4 mg/kg, read-out: Cmax",5800 ng/mL
